Measured values: article PMC3480437, “Abscisic Acid Signaling: Thermal Stability Shift Assays as Tool to Analyze Hormone Perception and Signal Transduction” (PLoS ONE, 2012)

Key:
Format in all cases: binding
SnRK2.3 = molecular target: T1, SnRK2.3 (Arabidopsis thaliana, UniProt Q39193); experiment: thermal shift (SYPRO Orange); conditions: 50 µM compound, 5 µM kinase
T1 construct: gene SRK2I; full length, recombinant from E. coli; untagged and as N-terminal MBP fusion (NAAAEF linker)
T1 sequence (Q39193 1-361): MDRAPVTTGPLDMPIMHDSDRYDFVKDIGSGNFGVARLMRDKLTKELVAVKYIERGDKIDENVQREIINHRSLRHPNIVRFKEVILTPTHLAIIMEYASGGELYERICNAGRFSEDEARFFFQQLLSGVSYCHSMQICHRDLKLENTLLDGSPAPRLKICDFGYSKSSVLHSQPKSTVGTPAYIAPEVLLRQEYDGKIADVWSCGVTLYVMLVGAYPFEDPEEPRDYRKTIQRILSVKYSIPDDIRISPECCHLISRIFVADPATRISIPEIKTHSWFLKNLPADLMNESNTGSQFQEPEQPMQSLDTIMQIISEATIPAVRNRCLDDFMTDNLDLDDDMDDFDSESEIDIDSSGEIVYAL

SnRK2.2 = molecular target: T2, SnRK2.2 (Arabidopsis thaliana, UniProt Q39192); experiment: thermal shift (SYPRO Orange); conditions: 50 µM compound
T2 construct: gene SRK2D
T2 sequence (Q39192 1-362): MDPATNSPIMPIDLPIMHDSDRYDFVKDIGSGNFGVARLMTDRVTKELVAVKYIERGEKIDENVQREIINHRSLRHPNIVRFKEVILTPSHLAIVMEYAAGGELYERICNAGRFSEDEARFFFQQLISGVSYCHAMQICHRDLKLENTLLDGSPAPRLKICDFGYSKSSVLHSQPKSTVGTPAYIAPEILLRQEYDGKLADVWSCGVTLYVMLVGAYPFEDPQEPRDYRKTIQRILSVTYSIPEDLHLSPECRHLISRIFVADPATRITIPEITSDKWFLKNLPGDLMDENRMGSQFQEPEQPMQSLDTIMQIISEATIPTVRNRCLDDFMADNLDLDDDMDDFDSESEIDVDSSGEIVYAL

SnRK2.6 = molecular target: T3, SnRK2.6 (Arabidopsis thaliana, UniProt Q940H6); experiment: thermal shift (SYPRO Orange); conditions: 50 µM compound, 5 µM kinase
T3 construct: gene SRK2E; full length, recombinant from E. coli; untagged in TSA, H6GST fusion in kinase assay
T3 sequence (Q940H6 1-362): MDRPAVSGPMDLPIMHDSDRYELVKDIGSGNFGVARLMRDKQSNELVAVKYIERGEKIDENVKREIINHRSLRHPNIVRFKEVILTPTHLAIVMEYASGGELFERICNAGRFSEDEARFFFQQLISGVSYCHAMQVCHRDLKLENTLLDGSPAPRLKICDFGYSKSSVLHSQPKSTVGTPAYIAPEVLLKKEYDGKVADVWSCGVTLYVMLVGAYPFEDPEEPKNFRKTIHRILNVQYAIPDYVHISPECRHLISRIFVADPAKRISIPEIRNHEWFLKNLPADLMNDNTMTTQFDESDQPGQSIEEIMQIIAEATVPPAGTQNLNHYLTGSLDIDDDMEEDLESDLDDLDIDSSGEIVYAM

[1] = molecular target: T4, PYL1/HAB1 coreceptor complex (Arabidopsis thaliana, UniProt Q8VZS8); experiment: radioligand competition (SPA, 3H-ABA); conditions: 450 nM 3H-ABA, 10 µM HAB1, MOPS pH 7.4, room temperature; curve only in figure
T4 construct: H6GST-PYL1 on SPA beads plus HAB1 (172-511), both from E. coli; 1:1 complex; with Protein phosphatase 2C 16
T4 sequence (Q8VZS8 36-211): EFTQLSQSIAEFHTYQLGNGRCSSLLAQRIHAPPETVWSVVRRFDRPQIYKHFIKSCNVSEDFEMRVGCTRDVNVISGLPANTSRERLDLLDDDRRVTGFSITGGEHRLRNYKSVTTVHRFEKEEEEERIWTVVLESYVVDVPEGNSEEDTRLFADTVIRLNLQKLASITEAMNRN
T4 sequence (Q9CAJ0 172-511 partner): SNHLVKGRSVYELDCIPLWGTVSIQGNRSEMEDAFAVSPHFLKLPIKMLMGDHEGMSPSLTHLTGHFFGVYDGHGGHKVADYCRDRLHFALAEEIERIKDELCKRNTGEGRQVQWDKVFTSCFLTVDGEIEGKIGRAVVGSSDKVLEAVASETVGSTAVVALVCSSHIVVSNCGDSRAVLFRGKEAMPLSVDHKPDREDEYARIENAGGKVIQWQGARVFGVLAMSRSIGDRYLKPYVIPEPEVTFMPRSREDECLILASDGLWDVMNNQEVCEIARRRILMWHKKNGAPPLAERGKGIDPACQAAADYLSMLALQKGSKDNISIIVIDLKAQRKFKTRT

PYL2 = molecular target: T5, PYL2 (Arabidopsis thaliana, UniProt O80992); experiment: thermal shift (SYPRO Orange); conditions: 500 µM pyrabactin, no PP2C; apo Tm not derivable
T5 construct: residues 14-188, recombinant from E. coli, receptor alone without PP2C; dimeric
T5 sequence (O80992 14-188): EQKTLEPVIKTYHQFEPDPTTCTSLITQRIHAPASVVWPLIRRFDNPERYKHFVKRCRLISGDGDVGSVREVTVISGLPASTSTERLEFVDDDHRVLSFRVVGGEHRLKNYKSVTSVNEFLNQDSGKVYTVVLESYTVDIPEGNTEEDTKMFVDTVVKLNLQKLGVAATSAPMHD

dTm (SnRK2.3) [°C] | dTm (SnRK2.2) [°C] | dTm (SnRK2.6) [°C] | SMILES | radioligand competition (SPA, 3H-ABA) [1] | thermal shift (SYPRO Orange) (PYL2)
> 3 | > 3 | > 3 | O=C1NC(=O)c2c1c(-c1ccccc1Cl)cc1[nH]c3ccc(O)cc3c21 [Wee1 inhibitor] | – | –
– | – | – | O=S(=O)(NCc1ccccn1)c1ccc(Br)c2ccccc12 [pyrabactin] | Competition of the interactions between ^3H-ABA and the PYL1/HAB1 (A) | suggesting that pyrabactin directly binds PYL2, but with an affinity that is lower
